According to patent US6800280B2, “Methods for treating HIV-infected patients by the administration of GM-CSF and a protease inhibitor” (Schering AG, priority 1997, dated 2004):
Values joined by “and” are separate entries in the source; they are usually repeats but may differ in a detail not shown here. Identical values can stand only once. “Also recorded” adds a separate entry of the source.

What was measured:
HIV = assay: Phase I/II trial: HIV viral load by RNA-PCR (Amplicor) in HIV-infected patients; format: in vivo, Human Immunodeficiency Virus (HIV); conditions: GM-CSF group versus placebo group throughout the study, concurrent antiretroviral drugs
Method: (§1) A study was conducted to determine the safety and efficacy of human GM-CSF as a therapeutic reagent in HIV-infected patients. Because some in vitro studies had indicated the possibility that GM-CSF might enhance HIV replication in vivo, this study assessed the impact of co-administration of GM-CSF with an antiretroviral agent on HIV replication. HIV viral burden was measured by the RNA-PCR (Amplicor®) method. To assess the effects of this treatment on lymphocyte counts, blood samples were analyzed throughout the study for determination of CD3^+, CD4^+, and CD8^+ T-lymphocyte counts.
This study was a Phase I/II, randomized, double-blind, placebo-controlled, two-center trial involving patients with HIV disease. […] Viral load was determined at baseline (mean of three determinations within fourteen days of study entry), then at two weeks, four weeks, and eight weeks after starting study drugs, and on two separate occasions approximately four weeks after the conclusion of the treatment phase (post-treatment evaluation). […]
At 2, 4 and 8 weeks after the start of study drug and at follow-up (approximately 4 weeks after completion of study drug), patients were examined, their medical histories were updated, and samples were taken for laboratory studies. A central laboratory was utilized for HIV quantification laboratory tests in order to standardize procedures and minimize variability. […]

[1] = tested on: CD4^+ T-lymphocyte counts; assay: Phase I/II randomized, double-blind, placebo-controlled trial: CD4^+ T-lymphocyte counts in HIV-infected patients; format: in vivo, human
Method: as §1
This study was a Phase I/II, randomized, double-blind, placebo-controlled, two-center trial involving patients with HIV disease. Patients meeting specific entry criteria were randomized to treatment with GM-CSF or placebo, and these were administered by subcutaneous injection three times per week for eight weeks. Viral load was determined at baseline (mean of three determinations within fourteen days of study entry), then at two weeks, four weeks, and eight weeks after starting study drugs, and on two separate occasions approximately four weeks after the conclusion of the treatment phase (post-treatment evaluation). Clinical and lymphocyte subset evaluations were performed at each of these same time points (i.e., pre-treatment, week 2, week 4, week 8, and 4 weeks post-study). Twenty patients were enrolled in the study, ten per treatment arm. All twenty patients completed the study.
Patients were eligible for inclusion in the study if the following parameters were met: documented HIV infection, including detectable RNA-PCR during baseline evaluation period, age ≧18 years (or legal age of consent), adequate hematologic function, satisfactory hepatic and renal function, adequate clinical performance status, treatment with an antiretroviral regimen that included either ritonavir or indinavir for at least 8 weeks prior to study enrollment and agreement to continue on a stable regimen throughout the study, ability and willingness to provide written informed consent, agreement to practice medically-approved contraception.
Patients were ineligible for inclusion in the study if the following exclusion criteria were met: concurrent pregnancy or breast feeding, concurrent use of other colony stimulating factors or cytokines (other than erythropoietin), life-expectancy <90 days, concurrent radiation or systemic cancer chemotherapy (or within 2 weeks prior to study entry), inability to self-administer or arrange for administration of subcutaneous injections, significant cardiac disease, prior history of adverse reaction to yeast-derived rhu GM-CSF which would prohibit retreatment, active infection (AIDS-related or not) requiring acute systemic therapy within 8 weeks prior to study enrollment, vaccination of any kind within 8 weeks of study enrollment.
Study participants were randomly assigned to receive either active GM-CSF or placebo. Patients were instructed in methods for self-administration of study medication and received preloaded syringes or vials with empty syringes for home use.
The formulation of recombinant human GM-CSF utilized in this clinical trial was LEUKINE® (commercially available from Immunex Corporation, Seattle, Wash.). LEUKINE® and placebo were supplied as lyophilized powders. Both LEUKINE® and placebo were reconstituted by the aseptic injection of Bacteriostatic Water for Injection, USP, containing 0.9% benzyl alcohol. […] These were 40 mg mannitol, USP; 10 mg sucrose, NF; and 1.2 mg TRIS (tromethamine), USP; per vial of study drug. Vials containing placebo were labeled in a fashion identical to vials containing LEUKINE®. Vials of placebo and LEUKINE® were stored refrigerated at 2-8° C. (36-46° F.). […]

[2] = WEEK 2, 9 patients, 250 mcg s.c. three times per week
[3] = WEEK 4, 10 patients, 250 mcg s.c. three times per week
[4] = WEEK 8, 10 patients, 250 mcg s.c. three times per week
[5] = WEEK 12 (post-treatment), 10 patients

GM-CSF: biosynthetic, yeast-derived, recombinant human GM-CSF; single 127 amino acid glycoprotein with leucine instead of proline at position 23
Change in viral load (in words) (HIV): no significant increase; also recorded: No significant differences; also recorded: without a concurrent increase | Effect on CD4^+ T-lymphocyte counts (in words) ([1]; GM-CSF arm versus baseline / placebo, patients concurrently receiving antiretroviral drugs): a trend towards an increase; also recorded: increased at all of the evaluation points; also recorded: significant increase | Change in CD4^+ T-Lymphocyte Counts Relative to Baseline, Mean (Sd) [1, 2]: 39 (150) | Change in CD4^+ T-Lymphocyte Counts Relative to Baseline, Median [1, 2]: −9 | Change in CD4^+ T-Lymphocyte Counts Relative to Baseline, Min-Max [1, 2]: −79-389 | Change in CD4^+ T-Lymphocyte Counts Relative to Baseline, Mean (Sd) [1, 3]: 40 (68) | Change in CD4^+ T-Lymphocyte Counts Relative to Baseline, Median [1, 3]: 34 | Change in CD4^+ T-Lymphocyte Counts Relative to Baseline, Min-Max [1, 3]: −61-135 | Change in CD4^+ T-Lymphocyte Counts Relative to Baseline, Mean (Sd) [1, 4]: 79 (172) | Change in CD4^+ T-Lymphocyte Counts Relative to Baseline, Median [1, 4]: 4 | Change in CD4^+ T-Lymphocyte Counts Relative to Baseline, Min-Max [1, 4]: −68-424 | Change in CD4^+ T-Lymphocyte Counts Relative to Baseline, Mean (Sd) [1, 5]: 28 (54) | Change in CD4^+ T-Lymphocyte Counts Relative to Baseline, Median [1, 5]: 30 | Change in CD4^+ T-Lymphocyte Counts Relative to Baseline, Min-Max [1, 5]: −68-112 | Absolute CD4^+ T-Lymphocyte Counts, Baseline CD4 ([1]; individual patients of GM-CSF arm, baseline (pre-treatment), on ritonavir or indinavir regimen): 276 and 383 and 65 and 590 and 152 and 91 and 24 (2×) and 40 and 136 | Absolute CD4^+ T-Lymphocyte Counts, Post-Study CD4 ([1]; individual patients, approximately 4 weeks after completion of 8-week treatment, 250 mcg s.c. three times per week): 208 and 373 and 77 and 659 and 199 and 161 and 11 and 33 and 136 and 200 | Absolute CD4^+ T-Lymphocyte Counts, Week 2 CD4 ([1]; individual patients, week 2, 250 mcg s.c. three times per week for eight weeks, concurrent ritonavir or indinavir regimen): 229 and 304 and 227 and 979 and 77 and 25 and 26 and 15 and 157 | Absolute CD4^+ T-Lymphocyte Counts, Week 4 CD4 ([1]; individual patients, week 4, 250 mcg s.c. three times per week for eight weeks, concurrent ritonavir or indinavir regimen): 356 and 477 and 31 and 725 and 91 and 219 and 12 and 61 and 26 and 182 | Absolute CD4^+ T-Lymphocyte Counts, Week 8 CD4 ([1]; individual patients, week 8, 250 mcg s.c. three times per week for eight weeks, concurrent ritonavir or indinavir regimen): 238 and 750 and 76 and 1014 and 84 and 162 and 21 and 29 and 18 and 176 | Absolute CD4^+ T-Lymphocyte Counts, Post-Study CD4, Median ([1]; median of GM-CSF arm, approximately 4 weeks post-treatment): 180 | Absolute CD4^+ T-Lymphocyte Counts, Baseline CD4, Median ([1]; median of GM-CSF arm, baseline (pre-treatment)): 114 | Absolute CD4^+ T-Lymphocyte Counts, Week 2 CD4, Median ([1]; median of GM-CSF arm, week 2, 250 mcg s.c. three times per week): 157 | Absolute CD4^+ T-Lymphocyte Counts, Week 4 CD4, Median ([1]; median of GM-CSF arm, week 4, 250 mcg s.c. three times per week): 137 | Absolute CD4^+ T-Lymphocyte Counts, Week 8 CD4, Median ([1]; median of GM-CSF arm, week 8, 250 mcg s.c. three times per week): 123 | MAXIMUM CHANGE > 30% THRU WEEK 8, n/N ([1]; patients with CD4^+ change of 30% or more over baseline / patients counted, thru week 8): 6/10 | MAXIMUM CHANGE > 30% THRU WEEK 12, n/N ([1]; patients with CD4^+ change of 30% or more over baseline / patients counted, thru week 12): 8/10 | MAXIMUM CHANGE > 30% THRU WEEK 12, (%) of patients ([1]; share of patients with CD4^+ change of 30% or more over baseline, thru week 12): (80%)
